Experiments:
MIA PaCa-2 = experiment: Anti-proliferation 2D CTG test (MIA PaCa-2); type: cell-based; settings: MIAPACA-2 cells, 500 cells/well, 5 days incubation with compound, CTG readout
Method: (§1) When the cell confluency was 80%, the cells were isolated with 0.25% trypsin. The isolated cells were resuspended in 5 mL of fresh cell culture medium and centrifuged to collect the cells. The number of cells were counted at the same time. Then, the cells were suspended in a culture medium at a moderate concentration. The cells were placed into a 96-well plate with 1500 cells/well for H358 and 500 cells/well for MIAPACA-2. The 96-well plate was placed in an incubator at 37° C. and incubated overnight.
(§2) 2) Day 1: processing of compound
(§3) A 2 mM stock solution was serially diluted at 10 points at a ratio of 1:3. 5× culture medium containing the compound was transferred to the corresponding wells of 96 wells. The final peak concentration of the compound was […], and the final concentration of DMSO was 0.5%. The 96-well plate was placed in the incubator at 37° C. and incubated for 5 days.
(§4) 3) Baseline reading. 4) Day 6: reading of signals
(§5) A detection reagent (CTG) was added at 50 μL/well, and the signals were read in an Envision instrument.
(§6) The percentage of inhibition ([…]) at each compound concentration was calculated based on the signals from the HPE and ZPE control wells contained in each assay plate and the fluorescence signals from individual compound wells. The inhibition rate in the ZPE control wells containing the enzyme and substrate was 0%, and the inhibition rate in the HPE control wells only containing the substrate was […]. By testing the compound in terms of numeric concentration and inhibition percentage, the compound concentration required for […] inhibition (IC50) was determined using a four-parameter logarithmic dose-response equation. The endpoint value (IC50) of the reference compound was evaluated in each experiment as a quality control measure. If the endpoint value was within three times the expected value, the experiment was considered acceptable.

H358 = experiment: Anti-proliferation 2D CTG test (H358); type: cell-based; settings: H358 cells, 1500 cells/well, 5 days incubation with compound, CTG readout
Method: as §1, §2, §3, §4, §5, §6

[1] = Homo sapiens, MIA PaCa-2, 120 h

Row | Compound | IC50 (MIA PaCa-2; [1]) | IC50 (H358; Homo sapiens, NCI-H358, 120 h) | IC50 (MIA PaCa-2) | IC50 (H358)
1 | C=CC(=O)N1CCN(c2nc(=O)n3c4nc(c(F)cc24)-c2c(F)cccc2OCC2OC(=O)OC2c2ccnc(C(C)C)c2-3)[C@@H](C)C1 (stereo partly drawn) [Example 62, 11-((S)-4-acryloyl-2-methylpiperazin-1-yl)-15,21-difluoro-7-isopropyl-3a,20a-dihydro-9H,20H-12,14-(epiethane[1,2]diylidene)benzo[b][1,3]dioxazolo[4,5-j]pyrido[3,4-h]pyrimido[6,1-f][1]oxa[5,7]diazacyclodidecyne-2,9-dione] | 16 nM | 20 nM | – | –
2 | C=CC(=O)N1C[C@H](C)N(c2nc(=O)n3c4nc(c(F)cc24)-c2c(F)cccc2OCC(O)C(OCC)c2ccnc(C(C)C)c2-3)C[C@H]1C (stereo partly drawn) [Example 57, (R)-2^4-((2S,5R)-4-acryloyl-2,5-dimethylpiperazin-1-yl)-7-ethoxy-2^6,3^6-difluoro-6-hydroxy-1^2-isopropyl-2^1,2^2-dihydro-4-oxa-2(1,7)-pyrido[2,3-d]pyrimidina-1(3,4)-pyridina-3(1,2)-benzocycloheptane-2^2-one] | – | – | 18 nM | 35 nM
3 | C=CC(=O)N1CCN(c2nc(=O)n3c4nc(c(F)cc24)-c2c(F)cccc2OCC(O)C(O)c2ccnc(C(C)C)c2-3)[C@@H](C)C1 (stereo partly drawn) [Example 1-R, (R)-2^4-((S)-4-acryloyl-2-methylpiperazin-1-yl)-2^6,3^6-difluoro-6,7-dihydroxy-1^2-isopropyl-2^1,2^2-dihydro-4-oxa-2(1,7)-pyrido[2,3-d]pyrimidina-1(3,4)-pyridina-3(1,2)-benzocycloheptane-2^2-one] | – | – | 12 nM | 9 nM
4 | C=CC(=O)N1C[C@H](C)N(c2nc(=O)n3c4nc(c(F)cc24)-c2c(ccc(Cl)c2F)OCC(OCC)C(O)c2ccnc(C(C)C)c2-3)C[C@H]1C (stereo partly drawn) [Example 71, 2^4-((2S,5R)-4-acryloyl-2,5-dimethylpiperazin-1-yl)-3^5-chloro-6-ethoxy-2^6,3^6-difluoro-7-hydroxy-1^2-isopropyl-2^1,2^2-dihydro-4-oxa-2(1,7)-pyrido[2,3-d]pyrimidina-1(3,4)-pyridina-3(1,2)-benzocycloheptane-2^2-one] | – | – | 3 nM | 8 nM
5 | C=CC(=O)N1CCN(c2nc(=O)n3c4nc(c(F)cc24)-c2c(F)cccc2OCC(O)C(OC(=O)C(C)C)c2ccnc(C(C)C)c2-3)[C@@H](C)C1 (stereo partly drawn) [Example 9, 2^4-((S)-4-acryloyl-2-methylpiperazin-1-yl)-2^6,3^6-difluoro-6-hydroxy-1^2-isopropyl-2^2-oxo-2^1,2^2-dihydro-4-oxa-2(1,7)-pyrido[2,3-d]pyrimidina-1(3,4)-pyridina-3(1,2)-benzocycloheptane-7-yl isobutyrate] | 13 nM | 21 nM | – | –
6 | C=CC(=O)N1CCN(c2nc(=O)n3c4nc(c(F)cc24)-c2c(F)cccc2OCC(OCC)C(O)c2ccnc(C(C)C)c2-3)[C@@H](C)C1 (stereo partly drawn) [Example 46, (S)-2^4-((S)-4-acryloyl-2-methylpiperazin-1-yl)-6-ethoxy-2^6,3^6-difluoro-7-hydroxy-1^2-isopropyl-2^1,2^2-dihydro-4-oxa-2(1,7)-pyrido[2,3-d]pyrimidina-1(3,4)-pyridina-3(1,2)-benzocycloheptane-2^2-one] | – | – | 148 nM | 261 nM
7 | C=CC(=O)N1CCN(c2nc(=O)n3c4nc(c(F)cc24)-c2c(F)cccc2OCC(O)C(OCC2CC2)c2ccnc(C(C)C)c2-3)[C@@H](C)C1 (stereo partly drawn) [Example 47, (R)-2^4-((S)-4-acryloyl-2-methylpiperazin-1-yl)-7-(cyclopropylmethoxy)-2^6,3^6-difluoro-6-hydroxy-1^2-isopropyl-2^1,2^2-dihydro-4-oxa-2(1,7)-pyrido[2,3-d]pyrimidina-1(3,4)-pyridina-3(1,2)-benzocycloheptane-2^2-one] | 5 nM | 9 nM | – | –
8 | C=CC(=O)N1C[C@H](C)N(c2nc(=O)n3c4nc(c(F)cc24)-c2c(F)cccc2OCC(OCC)C(O)c2ccnc(C(C)C)c2-3)C[C@H]1C (stereo partly drawn) [Example 36, (R)-2^4-((2S,5R)-4-acryloyl-2,5-dimethylpiperazin-1-yl)-6-ethoxy-2^6,3^6-difluoro-7-hydroxy-1^2-isopropyl-2^1,2^2-dihydro-4-oxa-2(1,7)-pyrido[2,3-d]pyrimidina-1(3,4)-pyridina-3(1,2)-benzocycloheptane-2^2-one] | 1 nM | 1 nM | – | –
9 | C=CC(=O)N1CCN(c2nc(=O)n3c4nc(c(F)cc24)-c2c(F)cccc2OCC(=O)C(OC(C)=O)c2ccnc(C(C)C)c2-3)[C@@H](C)C1 (stereo partly drawn) [Example 20, (R)-2^4-((S)-4-acryloyl-2-methylpiperazin-1-yl)-2^6,3^6-difluoro-1^2-isopropyl-2^2,6-dioxo-2^1,2^2-dihydro-4-oxa-2(1,7)-pyrido[2,3-d]pyrimidina-(3,4)-pyridina-3(1,2)-benzocycloheptane-7-yl acetate] | – | – | 30 nM | 25 nM
10 | C=CC(=O)N1CCN(c2nc(=O)n3c4nc(c(F)cc24)-c2c(F)cccc2OCC(O)C(OCCF)c2ccnc(C(C)C)c2-3)[C@@H](C)C1 (stereo partly drawn) [Example 24, 2^4-((S)-4-acryloyl-2-methylpiperazin-1-yl)-2^6,3^6-difluoro-7-(2-fluoroethoxy)-6-hydroxy-1^2-isopropyl-2^1,2^2-dihydro-4-oxa-2(1,7)-pyrido[2,3-d]pyrimidina-1(3,4)-pyridina-3(1,2)-benzocycloheptane-2^2-one] | 8 nM | 17 nM | – | –
11 | C=CC(=O)N1C[C@H](C)N(c2nc(=O)n3c4nc(c(F)cc24)-c2c(F)cccc2OCC(O)C(OCC)c2ccnc(C(C)C)c2-3)C[C@H]1C (stereo partly drawn) [Example 35, 2^4-((2S,5R)-4-acryloyl-2,5-dimethylpiperazin-1-yl)-7-ethoxy-2^6,3^6-difluoro-6-hydroxy-1^2-isopropyl-2^1,2^2-dihydro-4-oxa-2(1,7)-pyrido[2,3-d]pyrimidina-1(3,4)-pyridina-3(1,2)-benzocycloheptane-2^2-one] | – | – | 4 nM | 11 nM

Continued, values first:

Row | IC50 (MIA PaCa-2; [1]) | IC50 (H358; Homo sapiens, NCI-H358, 120 h) | IC50 (MIA PaCa-2) | IC50 (H358) | Compound
12 | – | – | 6 nM | 7 nM | C=CC(=O)N1CCN(c2nc(=O)n3c4nc(c(F)cc24)-c2c(ccc(Cl)c2F)OCC(O)C(OCC)c2ccnc(C(C)C)c2-3)[C@@H](C)C1 (stereo partly drawn) [Example 72, (R)-2^4-((S)-4-acryloyl-2-methylpiperazin-1-yl)-3^5-chloro-7-ethoxy-2^6,3^6-difluoro-6-hydroxy-1^2-isopropyl-2^1,2^2-dihydro-4-oxa-2(1,7)-pyrido[2,3-d]pyrimidina-1(3,4)-pyridina-3(1,2)-benzocycloheptane-2^2-one]
13 | – | – | 125 nM | 250 nM | C=CC(=O)N1CCN(c2nc(=O)n3c4nc(c(F)cc24)-c2c(F)cccc2OCC(O)C(OCC)c2ccnc(C(C)C)c2-3)[C@@H](C)C1 (stereo partly drawn) [Example 44, (S)-2^4-((S)-4-acryloyl-2-methylpiperazin-1-yl)-7-ethoxy-2^6,3^6-difluoro-6-hydroxy-1^2-isopropyl-2^1,2^2-dihydro-4-oxa-2(1,7)-pyrido[2,3-d]pyrimidina-1(3,4)-pyridina-3(1,2)-benzocycloheptane-2^2-one]
14 | – | – | 6 nM | 3 nM | C=CC(=O)N1CCN(c2nc(=O)n3c4nc(c(F)cc24)-c2c(ccc(Cl)c2F)OCC(OCC)C(O)c2ccnc(C(C)C)c2-3)[C@@H](C)C1 (stereo partly drawn) [Example 75, (R)-2^4-((S)-4-acryloyl-2-methylpiperazin-1-yl)-3^5-chloro-6-ethoxy-2^6,3^6-difluoro-7-hydroxy-1^2-isopropyl-2^1,2^2-dihydro-4-oxa-2(1,7)-pyrido[2,3-d]pyrimidina-1(3,4)-pyridina-3(1,2)-benzocycloheptane-2^2-one]
15 | – | – | 3 nM | 5 nM | C=CC(=O)N1CCN(c2nc(=O)n3c4nc(c(F)cc24)-c2c(ccc(Cl)c2F)OCC(O)C(O)c2ccnc(C(C)C)c2-3)[C@@H](C)C1 (stereo partly drawn) [Example 66, (R)-2^4-((S)-4-acryloyl-2-methylpiperazin-1-yl)-3^5-chloro-2^6,3^6-difluoro-6,7-dihydroxy-1^2-isopropyl-2^1,2^2-dihydro-4-oxa-2(1,7)-pyrido[2,3-d]pyrimidina-1(3,4)-pyridina-3(1,2)-benzocycloheptane-2^2-one]
16 | 10 nM | 15 nM | – | – | C=CC(=O)N1CCN(c2nc(=O)n3c4nc(c(F)cc24)-c2c(F)cccc2OCC(O)C(OC(C)=O)c2ccnc(C(C)C)c2-3)[C@@H](C)C1 (stereo partly drawn) [Example 7, 2^4-((S)-4-acryloyl-2-methylpiperazin-1-yl)-2^6,3^6-difluoro-6-hydroxy-1^2-isopropyl-2^2-oxo-2^1,2^2-dihydro-4-oxa-2(1,7)-pyrido[2,3-d]pyrimidina-1(3,4)-pyridina-3(1,2)-benzocycloheptane-7-yl acetate]

— patent US20240101573A1, “MACROCYCLIC K-RAS G12C INHIBITOR, PREPARATION METHOD THEREFOR AND USE THEREOF” (Abbisko Therapeutics Co., Ltd., priority 2020, published 2024)
